For orientation: IC50 means the concentration at which inhibition is half-maximal.

The test addresses Bile salt export pump (Homo sapiens, UniProt O95342). Put plainly: Inhibition of human BSEP expressed in fall armyworm sf9 cell plasma membrane vesicles assessed as reduction in vesicle-associated [3H]-taurocholate transport preincubated for 10 mins prior to ATP addition measured after 15 mins in presence of [3H]-taurocholate by topcount based membrane vesicle transport assay. The format is ADME.
As to `CCCc1nc2c(C)cc(-c3nc4ccccc4n3C)cc2n1Cc1ccc(-c2ccccc2C(=O)O)cc1`, the 50% inhibitory concentration (IC50) turned out to be 16.2 µM. As to `CC(C)CN(C[C@@H](O)[C@H](Cc1ccccc1)NC(=O)O[C@H]1CCOC1)S(=O)(=O)c1ccc(N)cc1`, the IC50 lay in the range of 25 to 45 µM. As for `CNS(=O)(=O)Cc1ccc2[nH]cc(CCN(C)C)c2c1`, the figure is over 135 µM. To `CC1=C(CC(=O)O)c2cc(F)ccc2/C1=C\c1ccc([S+](C)[O-])cc1` (configuration not stated) belongs over 135 µM; to `O=C(O)c1ccccc1-c1c2ccc(=O)cc-2oc2cc(O)ccc12`, over 135 µM. As for `COc1ccccc1N1CCN(CCCNc2cc(=O)n(C)c(=O)n2C)CC1`, the figure is over 135 µM; as for `CC(=O)[C@H]1[C@H](C#N)C[C@H]2[C@@H]3CC=C4CC(O)CC[C@]4(C)[C@H]3CC[C@@]21C` (some centres not stated), over 135 µM.

Turning to `Cc1c(O)cccc1C(=O)N[C@@H](CSc1ccccc1)[C@H](O)CN1C[C@H]2CCCC[C@H]2C[C@H]1C(=O)NC(C)(C)C`, the half-inhibitory concentration (IC50) is 11.8 µM. As for `Nc1nc(N)c2nc(-c3ccccc3)c(N)nc2n1`, the figure is over 135 µM; as for `S=C=Nc1cccc2ccccc12` [1-NAPHTHYLISOTHIOCYANATE], 60 to 75 µM. To `CCN(CC)CCNC(=O)c1ccc(NC(C)=O)cc1` [ACECAINIDE] belongs over 135 µM; to `CC(=O)Nc1ccc(O)cc1` [ACETAMINOPHEN], over 135 µM; to `Nc1nc2c(ncn2COCCO)c(=O)[nH]1` [ACYCLOVIR], over 135 µM. On to `C=CCc1ccccc1OCC(O)CNC(C)C` (configuration not stated) [ALPRENOLOL], for which the IC50 was over 135 µM. `NCC[C@H](O)C(=O)N[C@@H]1C[C@H](N)[C@@H](O[C@H]2O[C@H](CN)[C@@H](O)[C@H](O)[C@H]2O)[C@H](O)[C@H]1O[C@H]1O[C@H](CO)[C@@H](O)[C@H](N)[C@H]1O` [AMIKACIN]: the concentration for half-maximal inhibition (IC50) was over 135 µM. Regarding `CN(C)CCC=C1c2ccccc2CCc2ccccc21` [AMITRIPTYLINE], the IC50 was over 135 µM. On to `CCCCCC[C@H]1C(=O)O[C@H](C)[C@H](NC(=O)c2cccc(NC=O)c2O)C(=O)O[C@@H](C)[C@@H]1OC(=O)CC(C)C` [ANTIMYCIN A], for which the IC50 is 45 to 60 µM.

For `Cc1cc(=O)n(-c2ccccc2)n1C` [ANTIPYRINE], the IC50 is over 135 µM. As for `CN1CCc2cccc3c2[C@H]1Cc1ccc(O)c(O)c1-3` [APOMORPHINE], the figure is over 135 µM. As for `CC(=O)Oc1ccccc1C(=O)O` [ASPIRIN], the figure is over 135 µM; as for `CCc1oc2ccccc2c1C(=O)c1cc(Br)c(O)c(Br)c1` [BENZBROMARONE], 17.5 µM; as for `C[C@H]1C[C@H]2[C@@H]3CCC4=CC(=O)C=C[C@]4(C)[C@@]3(F)[C@@H](O)C[C@]2(C)[C@@]1(O)C(=O)CO` [BETAMETHASONE], over 135 µM. As for `O=C(O)CCNC(=O)c1ccccc1` [BETAMIPRON], the figure is over 135 µM. Turning to `COc1ccccc1Oc1c(NS(=O)(=O)c2ccc(C(C)(C)C)cc2)nc(-c2ncccn2)nc1OCCO` [BOSENTAN], the IC50 turned out to be 22 µM. To `CCCCNc1cc(C(=O)O)cc(S(N)(=O)=O)c1Oc1ccccc1` [BUMETANIDE] belongs over 135 µM; to `CS(=O)(=O)OCCCCOS(C)(=O)=O` [BUSULFAN], over 135 µM; to `Oc1ccc2c(c1)[C@@]13CCCC[C@@]1(O)[C@@H](C2)N(CC1CCC1)CC3` [BUTORPHANOL], over 135 µM. To `CC[C@@]1(O)C(=O)OCc2c1cc1n(c2=O)Cc2cc3ccccc3nc2-1` [CAMPTOTHECIN] belongs over 135 µM; to `ClC(Cl)(Cl)Cl` [CARBON TETRACHLORIDE], over 135 µM.

Take `C=CC1=C(C(=O)O)N2C(=O)[C@@H](NC(=O)/C(=N\OCC(=O)O)c3csc(N)n3)[C@H]2SC1` [CEFIXIME]: the IC50 is over 135 µM. As for `O=C(O)CCCc1ccc(N(CCCl)CCCl)cc1` [CHLORAMBUCIL], the figure is over 135 µM; as for `CNC1=Nc2ccc(Cl)cc2C(c2ccccc2)=[N+]([O-])C1` [CHLORDIAZEPOXIDE], 25 to 45 µM. Consider `CN(C)CCC(c1ccc(Cl)cc1)c1ccccn1` (configuration not stated) [CHLORPHENIRAMINE], for which the 50% inhibitory concentration (IC50) is over 135 µM. As for `CN(C)CCCN1c2ccccc2Sc2ccc(Cl)cc21` [CHLORPROMAZINE], the figure is over 135 µM. As for `CCCNC(=O)NS(=O)(=O)c1ccc(Cl)cc1` [CHLORPROPAMIDE], the figure is over 135 µM; as for `CC1(COc2ccc(CC3SC(=O)NC3=O)cc2)CCCCC1` (configuration not stated) [CIGLITAZONE], 37.8 µM; as for `C(=C\c1ccccc1)/CN1CCN(C(c2ccccc2)c2ccccc2)CC1` [CINNARIZINE], 15.7 µM. As for `CC(C)(Oc1ccc(C2CC2(Cl)Cl)cc1)C(=O)O` (configuration not stated) [CIPROFIBRATE], the figure is over 135 µM; as for `CC(C)/N=c1\cc2n(-c3ccc(Cl)cc3)c3ccccc3nc-2cc1Nc1ccc(Cl)cc1` [CLOFAZIMINE], 12.9 µM; as for `CCOC(=O)C(C)(C)Oc1ccc(Cl)cc1` [CLOFIBRATE], 60 to 75 µM. Turning to `C[C@@H]1CCC[C@H](C)N1NC(=O)c1ccc(Cl)c(S(N)(=O)=O)c1` [CLOPAMIDE], the IC50 was over 135 µM. To `CN1CCN(C2=Nc3cc(Cl)ccc3Nc3ccccc32)CC1` [CLOZAPINE] belongs over 135 µM. To `O=P1(N(CCCl)CCCl)NCCCO1` (configuration not stated) [CYCLOPHOSPHAMIDE ANHYDROUS] belongs over 135 µM; to `CNCCCN1c2ccccc2CCc2ccccc21` [DESIPRAMINE], over 135 µM; to `C[C@@H]1C[C@H]2[C@@H]3CCC4=CC(=O)C=C[C@]4(C)[C@@]3(F)[C@@H](O)C[C@]2(C)[C@@]1(O)C(=O)CO` [DEXAMETHASONE], over 135 µM.

On to `CN1C(=O)CN=C(c2ccccc2)c2cc(Cl)ccc21` [DIAZEPAM], for which the half-maximal inhibitory concentration (IC50) was over 135 µM. Turning to `CC1=NS(=O)(=O)c2cc(Cl)ccc2N1` [DIAZOXIDE], the IC50 was over 135 µM. To `Cc1onc(-c2c(Cl)cccc2Cl)c1C(=O)N[C@@H]1C(=O)N2[C@@H]1SC(C)(C)[C@@H]2C(=O)O` [DICLOXACILLIN] belongs 45 to 60 µM; to `CC(C)N(CCC(C(N)=O)(c1ccccc1)c1ccccn1)C(C)C` (configuration not stated) [DISOPYRAMIDE], over 135 µM. As for `COc1cccc2c1C(=O)c1c(O)c3c(c(O)c1C2=O)C[C@@](O)(C(=O)CO)C[C@@H]3O[C@H]1C[C@H](N)[C@H](O)[C@H](C)O1` [DOXORUBICIN], the figure is over 135 µM; as for `CCOc1ccc(/C=C2\NCCc3cc(OCC)c(OCC)cc32)cc1OCC` [DROTAVERINE], 37 µM. As for `CC[C@H]1CN2CCc3cc(OC)c(OC)cc3[C@@H]2C[C@@H]1C[C@H]1NCCc2cc(OC)c(OC)cc21` [EMETINE], the figure is over 135 µM. In the case of `CCCCc1ncc(/C=C(\Cc2cccs2)C(=O)O)n1Cc1ccc(C(=O)O)cc1` [EPROSARTAN], the IC50 was over 135 µM. As for `CCC(=O)O[C@H]1[C@H](O[C@@H]2[C@@H](C)[C@H](O[C@H]3C[C@@](C)(OC)[C@@H](O)[C@H](C)O3)[C@@H](C)C(=O)O[C@H](CC)[C@@](C)(O)[C@H](O)[C@@H](C)C(=O)[C@H](C)C[C@@]2(C)O)O[C@H](C)C[C@@H]1N(C)C` [ERYTHROMYCIN ESTOLATE], the figure is 13 µM; as for `Cc1ccc(-c2ncc(Cl)cc2-c2ccc(S(C)(=O)=O)cc2)cn1` [ETORICOXIB], 45 to 60 µM; as for `NC(N)=Nc1nc(CSCCC(N)=NS(N)(=O)=O)cs1` [FAMOTIDINE], over 135 µM. As for `CC(C)OC(=O)C(C)(C)Oc1ccc(C(=O)c2ccc(Cl)cc2)cc1` [FENOFIBRATE], the figure is 15.3 µM.

Values taken from ChEMBL document CHEMBL4011581, “Interference with bile salt export pump function is a susceptibility factor for human liver injury in drug development” (Toxicol Sci, 2010).
